The values that follow come from PMC12448936, “Odorant Receptors Mediating Avoidance of Toxic Mustard Oils in Drosophila melanogaster Are Expanded in Herbivorous Relatives” (Molecular Biology and Evolution, 2025).

Molecules are shown by their SMILES. Where two headings read alike, the source gives them in different places. Bounds are passed on as bounds.

In experiment [1] the target is T1, S. pallida Or42a2 (Scaptomyza pallida, UniProt Z9QWX1R862).
T1 construct: full coding region in UAST-attB, attP40 site; D. melanogaster at1 OSNs (Or67d null), host Orco; with Odorant receptor coreceptor (Drosophila melanogaster, endogenous in host neuron)
T1 sequence (Z9QWX1R862 1-406): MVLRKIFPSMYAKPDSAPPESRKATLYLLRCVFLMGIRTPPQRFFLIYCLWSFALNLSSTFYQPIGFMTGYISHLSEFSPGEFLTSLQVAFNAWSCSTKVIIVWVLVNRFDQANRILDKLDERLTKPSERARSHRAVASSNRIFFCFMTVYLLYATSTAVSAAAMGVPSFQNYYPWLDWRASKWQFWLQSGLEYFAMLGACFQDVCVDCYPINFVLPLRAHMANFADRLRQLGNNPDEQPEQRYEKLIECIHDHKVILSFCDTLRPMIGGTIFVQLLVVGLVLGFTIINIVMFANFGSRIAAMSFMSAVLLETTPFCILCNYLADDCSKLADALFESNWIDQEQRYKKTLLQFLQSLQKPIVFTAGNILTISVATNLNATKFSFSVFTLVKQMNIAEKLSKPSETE
T1 sequence (Q9VNB5 1-486 partner): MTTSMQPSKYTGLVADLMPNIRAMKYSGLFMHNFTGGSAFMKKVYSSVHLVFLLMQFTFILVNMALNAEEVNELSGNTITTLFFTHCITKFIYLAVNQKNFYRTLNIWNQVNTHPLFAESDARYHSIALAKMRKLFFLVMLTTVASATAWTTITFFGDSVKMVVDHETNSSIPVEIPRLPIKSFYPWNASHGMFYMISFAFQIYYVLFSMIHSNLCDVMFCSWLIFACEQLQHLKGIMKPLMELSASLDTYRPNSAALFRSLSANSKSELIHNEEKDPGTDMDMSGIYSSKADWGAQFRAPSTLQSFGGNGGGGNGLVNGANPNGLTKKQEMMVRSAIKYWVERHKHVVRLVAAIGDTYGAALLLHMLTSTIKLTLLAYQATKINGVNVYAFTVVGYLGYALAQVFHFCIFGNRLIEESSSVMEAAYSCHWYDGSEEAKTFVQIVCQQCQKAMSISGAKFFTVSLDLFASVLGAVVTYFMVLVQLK
Description: single sensillum recording, at1 empty neuron. In kind it is cell-based. The conditions noted are these: bound given for three odorants together.

For experiment [2], the target named is T2, S. flava Or42a3 (Scaptomyza flava, UniProt Z9ZJ76RJY6).
T2 construct: full coding region (UTRs removed) in UAST-attB, attP40 site; D. melanogaster at1 OSNs (Or67d null), host Orco; with Odorant receptor coreceptor (Drosophila melanogaster, endogenous in host neuron)
T2 sequence (Z9ZJ76RJY6 1-407): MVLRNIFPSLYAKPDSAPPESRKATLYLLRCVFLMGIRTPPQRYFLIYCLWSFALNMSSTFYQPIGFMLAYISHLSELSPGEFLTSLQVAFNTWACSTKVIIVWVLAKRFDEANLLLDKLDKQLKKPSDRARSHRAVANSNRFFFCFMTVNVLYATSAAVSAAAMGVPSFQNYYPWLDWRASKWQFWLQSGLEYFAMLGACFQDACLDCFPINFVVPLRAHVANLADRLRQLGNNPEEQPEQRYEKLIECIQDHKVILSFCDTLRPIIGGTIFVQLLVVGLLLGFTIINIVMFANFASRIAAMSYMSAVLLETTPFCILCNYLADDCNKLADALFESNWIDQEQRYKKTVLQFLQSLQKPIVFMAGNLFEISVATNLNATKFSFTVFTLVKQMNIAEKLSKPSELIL
T2 sequence (Q9VNB5 1-486 partner): T1 sequence (Q9VNB5 1-486 partner)
In words: single sensillum recording, at1 empty neuron. In kind it is cell-based.

The target of experiment [3] is T3, D. melanogaster Or42a (Drosophila melanogaster, UniProt Q9V9I2).
T3 construct: full length UAS transgene in D. melanogaster at1 OSNs (Or67d-Gal4 null background), endogenous Orco; EC50 from native pb1a OSNs; with Odorant receptor coreceptor (Drosophila melanogaster)
T3 sequence (Q9V9I2 1-406): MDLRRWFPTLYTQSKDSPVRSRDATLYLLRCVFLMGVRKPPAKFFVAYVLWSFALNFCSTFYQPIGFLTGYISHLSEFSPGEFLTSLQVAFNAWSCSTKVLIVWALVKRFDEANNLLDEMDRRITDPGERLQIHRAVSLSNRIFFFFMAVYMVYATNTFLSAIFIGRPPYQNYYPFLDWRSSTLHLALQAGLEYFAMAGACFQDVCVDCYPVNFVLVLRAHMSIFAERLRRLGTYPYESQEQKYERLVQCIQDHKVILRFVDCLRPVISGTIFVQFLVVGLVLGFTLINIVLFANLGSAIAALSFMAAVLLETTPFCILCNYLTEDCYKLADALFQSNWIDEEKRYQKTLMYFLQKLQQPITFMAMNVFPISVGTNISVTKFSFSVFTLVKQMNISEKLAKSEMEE
T3 sequence (Q9VNB5 1-486 partner): T1 sequence (Q9VNB5 1-486 partner)
Description: single sensillum recording, at1 empty neuron. To be noted: bound given for three odorants together. In kind it is cell-based.

Experiment [4] deals with T4, S. flava Or42a2 (Scaptomyza flava, UniProt Z9B9G2NIU8).
T4 construct: full coding region (UTRs removed) in UAST-attB, attP40 site; D. melanogaster at1 OSNs (Or67d null), host Orco; with Odorant receptor coreceptor (Drosophila melanogaster, endogenous in host neuron)
T4 sequence (Z9B9G2NIU8 1-404): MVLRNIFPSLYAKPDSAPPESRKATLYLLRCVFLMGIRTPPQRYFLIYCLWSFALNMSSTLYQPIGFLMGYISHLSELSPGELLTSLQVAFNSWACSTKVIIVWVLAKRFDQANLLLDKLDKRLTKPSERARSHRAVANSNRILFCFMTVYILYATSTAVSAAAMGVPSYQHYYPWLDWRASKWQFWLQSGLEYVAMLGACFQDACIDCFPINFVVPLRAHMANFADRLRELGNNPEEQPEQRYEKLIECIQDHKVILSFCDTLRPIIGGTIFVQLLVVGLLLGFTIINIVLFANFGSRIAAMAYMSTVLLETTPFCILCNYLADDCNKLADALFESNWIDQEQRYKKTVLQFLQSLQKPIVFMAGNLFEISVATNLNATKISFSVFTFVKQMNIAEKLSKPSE
T4 sequence (Q9VNB5 1-486 partner): T1 sequence (Q9VNB5 1-486 partner)
In words: single sensillum recording, at1 empty neuron. In kind it is cell-based. To be noted: volatile stimulus 1:100 vol/vol in mineral oil.

For experiment [5], the target named is T5, S. flava Or42a4 (Scaptomyza flava, UniProt Z9LG74I6Y6).
T5 construct: full coding region (UTRs removed) in UAST-attB, attP40 site; D. melanogaster at1 OSNs (Or67d null), host Orco; with Odorant receptor coreceptor (Drosophila melanogaster, endogenous in host neuron)
T5 sequence (Z9LG74I6Y6 1-404): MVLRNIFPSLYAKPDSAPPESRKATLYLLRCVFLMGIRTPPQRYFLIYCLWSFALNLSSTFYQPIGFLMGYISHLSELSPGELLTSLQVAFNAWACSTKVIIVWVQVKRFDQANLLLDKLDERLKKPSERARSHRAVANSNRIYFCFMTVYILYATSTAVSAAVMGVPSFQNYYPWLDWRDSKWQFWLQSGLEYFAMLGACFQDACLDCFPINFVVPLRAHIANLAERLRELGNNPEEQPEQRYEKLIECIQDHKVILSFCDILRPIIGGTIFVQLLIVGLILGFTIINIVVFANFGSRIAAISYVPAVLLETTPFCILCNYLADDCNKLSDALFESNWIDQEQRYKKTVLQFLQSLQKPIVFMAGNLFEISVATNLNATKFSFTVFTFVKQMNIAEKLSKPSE
T5 sequence (Q9VNB5 1-486 partner): T1 sequence (Q9VNB5 1-486 partner)
Description: single sensillum recording, at1 empty neuron. The format is cell-based.

In experiment [6] the test system is S. flava Or42a3. The conditions noted are these: heterozygous UAS transgene, Fig. 8 legend prints S301P.
Setting [7] is: volatile stimulus 1:100 vol/vol in mineral oil.
Setting [8] is: volatile stimulus 1:100 vol/vol in DMSO.

As for `C=CCN=C=S` [AITC, allyl isothiocyanate], the spikes/s is greater than 96 spikes/s in experiment [1] (setting [7]); “S. flava Or42a3 or S. flava Or42a4 were also very sensitive to AITC and trans-2-hexenal” in experiment [2] (setting [7]); greater than 79 spikes/s in experiment [3] (setting [7]); “S. flava Or42a2 was only activated by AITC” in experiment [4]; “S. flava Or42a3 or S. flava Or42a4 were also very sensitive to AITC and trans-2-hexenal” in experiment [5] (setting [7]).
With `CCCCN=C=S` [BITC, butyl ITC], the spikes/s entry in experiment [6] (setting [7]) is “The A181D S307P variant and the two S. flava paralogs showed similar moderate responses to BITC”.
As to `CCC/C=C/C=O` [trans-2-hexenal], the spikes/s is greater than 96 spikes/s in experiment [1] (setting [7]); “S. flava Or42a3 or S. flava Or42a4 were also very sensitive to AITC and trans-2-hexenal” in experiment [2] (setting [7]); greater than 79 spikes/s in experiment [3] (setting [7]); “S. flava Or42a3 or S. flava Or42a4 were also very sensitive to AITC and trans-2-hexenal” in experiment [5] (setting [7]).
With `CCC1CCC(=O)O1` (stereo not drawn) [γ-hexalactone], the spikes/s in experiment [1] (setting [8]) is greater than 96 spikes/s; in experiment [2] (setting [8]) it was “S. flava Or42a3 showed a moderate response to γ-hexalactone”; in experiment [6] (setting [8]), “at1 population responses to BITC (white bars) and to γ-hexalactone (gray bars)”; in experiment [3] (setting [8]), greater than 79 spikes/s; in experiment [5] (setting [8]) it was less than 10 spikes/s.
